Among the data in ChEMBL document CHEMBL5331077, “Combining pharmacophore models derived from DNA-encoded chemical libraries with structure-based exploration to predict Tankyrase 1 inhibitors” (Eur J Med Chem, 2023) are inhibition values, retold here.

For assay [1], the target named is Protein mono-ADP-ribosyltransferase PARP14 (Homo sapiens) (UniProt Q460N5). Kind of assay: Inhibition of PARP14 (unknown origin).
Assay [2] addresses T1, Protein mono-ADP-ribosyltransferase PARP10 (Homo sapiens) (UniProt Q53GL7).
T1 sequence (whole entry): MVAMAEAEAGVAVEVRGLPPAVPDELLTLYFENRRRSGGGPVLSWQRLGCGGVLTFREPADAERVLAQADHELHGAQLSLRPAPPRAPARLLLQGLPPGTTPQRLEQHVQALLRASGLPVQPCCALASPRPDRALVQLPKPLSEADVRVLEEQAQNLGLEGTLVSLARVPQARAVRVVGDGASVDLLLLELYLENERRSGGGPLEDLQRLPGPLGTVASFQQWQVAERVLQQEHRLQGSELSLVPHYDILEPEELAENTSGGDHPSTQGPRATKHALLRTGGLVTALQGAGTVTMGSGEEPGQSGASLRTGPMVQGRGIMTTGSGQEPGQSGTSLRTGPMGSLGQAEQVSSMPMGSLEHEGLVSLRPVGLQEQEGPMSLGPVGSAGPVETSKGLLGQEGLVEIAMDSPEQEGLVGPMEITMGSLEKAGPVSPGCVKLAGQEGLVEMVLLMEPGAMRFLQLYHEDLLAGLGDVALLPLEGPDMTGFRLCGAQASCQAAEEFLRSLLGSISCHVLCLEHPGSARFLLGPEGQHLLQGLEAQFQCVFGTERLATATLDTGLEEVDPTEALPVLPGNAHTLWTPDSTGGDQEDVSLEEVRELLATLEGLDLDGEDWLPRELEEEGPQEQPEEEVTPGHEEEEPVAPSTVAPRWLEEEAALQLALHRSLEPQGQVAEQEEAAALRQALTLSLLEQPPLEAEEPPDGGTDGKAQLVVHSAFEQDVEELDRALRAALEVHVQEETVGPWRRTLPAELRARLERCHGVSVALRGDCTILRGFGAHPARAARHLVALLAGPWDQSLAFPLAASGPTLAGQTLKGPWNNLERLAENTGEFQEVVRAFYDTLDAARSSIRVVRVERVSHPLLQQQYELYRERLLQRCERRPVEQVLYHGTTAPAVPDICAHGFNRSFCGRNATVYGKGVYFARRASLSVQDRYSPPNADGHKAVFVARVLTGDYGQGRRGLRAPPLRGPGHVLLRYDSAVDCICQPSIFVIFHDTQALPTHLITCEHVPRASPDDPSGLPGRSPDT
Kind of assay: Inhibition of PARP10 (unknown origin).

Structures are written as SMILES. Active and inactive are the calls of the source. No cut-off for these calls is given here.

Chain of Protein mono-ADP-ribosyltransferase PARP14 (Homo sapiens) (Q460N5 whole entry): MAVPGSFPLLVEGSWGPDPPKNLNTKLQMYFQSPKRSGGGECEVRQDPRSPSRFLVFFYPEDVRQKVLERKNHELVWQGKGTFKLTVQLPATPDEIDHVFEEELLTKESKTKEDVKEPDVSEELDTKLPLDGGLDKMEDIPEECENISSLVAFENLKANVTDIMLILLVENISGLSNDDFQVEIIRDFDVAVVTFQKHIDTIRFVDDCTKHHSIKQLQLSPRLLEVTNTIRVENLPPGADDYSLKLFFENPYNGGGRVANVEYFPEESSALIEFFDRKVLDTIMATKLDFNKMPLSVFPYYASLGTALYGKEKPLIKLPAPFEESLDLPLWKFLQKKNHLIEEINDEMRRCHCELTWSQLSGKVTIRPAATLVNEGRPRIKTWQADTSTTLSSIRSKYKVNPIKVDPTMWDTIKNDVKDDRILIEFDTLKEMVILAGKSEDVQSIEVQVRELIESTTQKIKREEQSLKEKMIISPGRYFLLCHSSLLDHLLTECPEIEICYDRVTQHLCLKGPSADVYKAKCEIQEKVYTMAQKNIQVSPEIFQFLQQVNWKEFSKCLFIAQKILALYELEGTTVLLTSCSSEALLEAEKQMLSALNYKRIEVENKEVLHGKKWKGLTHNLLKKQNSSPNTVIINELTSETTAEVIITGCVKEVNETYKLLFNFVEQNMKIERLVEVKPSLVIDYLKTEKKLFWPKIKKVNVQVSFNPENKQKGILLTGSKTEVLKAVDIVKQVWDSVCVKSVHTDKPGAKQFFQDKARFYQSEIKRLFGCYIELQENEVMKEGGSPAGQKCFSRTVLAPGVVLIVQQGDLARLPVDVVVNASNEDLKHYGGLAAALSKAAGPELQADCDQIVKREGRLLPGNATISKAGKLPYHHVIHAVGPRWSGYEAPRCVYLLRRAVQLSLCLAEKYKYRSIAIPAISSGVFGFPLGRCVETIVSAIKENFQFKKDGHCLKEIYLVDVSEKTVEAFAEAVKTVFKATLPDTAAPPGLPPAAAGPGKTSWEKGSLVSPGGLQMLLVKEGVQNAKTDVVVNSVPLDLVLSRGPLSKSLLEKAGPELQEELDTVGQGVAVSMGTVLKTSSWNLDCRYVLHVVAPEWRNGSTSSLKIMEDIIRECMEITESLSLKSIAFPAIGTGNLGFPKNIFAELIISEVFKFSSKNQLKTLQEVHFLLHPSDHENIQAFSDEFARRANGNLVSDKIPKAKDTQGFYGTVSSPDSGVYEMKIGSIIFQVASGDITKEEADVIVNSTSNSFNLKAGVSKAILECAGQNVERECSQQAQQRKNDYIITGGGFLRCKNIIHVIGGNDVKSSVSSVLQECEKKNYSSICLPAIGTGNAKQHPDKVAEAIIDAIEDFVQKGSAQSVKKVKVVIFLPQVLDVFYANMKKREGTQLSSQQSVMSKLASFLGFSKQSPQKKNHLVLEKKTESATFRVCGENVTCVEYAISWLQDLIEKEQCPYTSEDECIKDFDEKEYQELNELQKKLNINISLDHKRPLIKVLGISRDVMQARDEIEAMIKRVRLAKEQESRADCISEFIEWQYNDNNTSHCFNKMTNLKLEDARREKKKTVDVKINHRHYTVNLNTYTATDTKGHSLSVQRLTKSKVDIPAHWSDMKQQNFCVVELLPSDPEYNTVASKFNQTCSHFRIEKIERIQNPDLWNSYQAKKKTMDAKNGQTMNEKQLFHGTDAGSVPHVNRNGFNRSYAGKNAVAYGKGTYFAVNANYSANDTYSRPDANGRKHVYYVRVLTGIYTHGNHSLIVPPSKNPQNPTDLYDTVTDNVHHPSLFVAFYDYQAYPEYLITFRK

`Cc1cc(OCC(=O)NCCNC(=O)c2cccc(COc3ccccc3C(N)=O)c2)c2c3c(c(=O)oc2c1)CCC3`: the inhibition entry in assay [1] is “inactive”. For the same compound, the inhibition entry in assay [2] is “Active”.
The like results for `CNC(=O)[C@H](CNC(=O)CCn1c(=O)[nH]c(=O)c2ccccc21)NC(=O)c1cnc2ccccc2c1` were, in that order, “inactive” and “inactive”.
